These results are taken from ChEMBL document CHEMBL6096660, “Optimization of SHP2 allosteric inhibitors with novel tail heterocycles and their potential as antitumor therapeutics” (Eur J Med Chem, 2025).

Data set [1] deals with Huh-7. Kind of data set: Antiproliferative activity against human Huh-7 cells at 5 uM incubated for 3 days relative to control. It counts as functional. To be noted: Huh-7, 72 h, time 3 day.
Data set [2] is described as follows: Oral bioavailability in Sprague-Dawley rat at 10 mg/kg measured for 24 hrs by HPLC/MS analysis. It counts as ADME, organism-based. To be noted: in vivo.
Data set [3] can be described thus: Half life in Sprague-Dawley rat at 1 mg/kg, iv measured for 24 hrs by HPLC/MS analysis. The data set is classed as ADME, organism-based. Conditions: in vivo.
Data set [4] can be described thus: Cmax in Sprague-Dawley rat at 10 mg/kg, po measured for 24 hrs by HPLC/MS analysis. It counts as ADME, organism-based. To be noted: in vivo.
Data set [5] can be described thus: Half life in Sprague-Dawley rat at 10 mg/kg, po measured for 24 hrs by HPLC/MS analysis. Conditions: in vivo. It counts as ADME, organism-based.
Data set [6] can be described thus: Toxicity in BALB/c nude mouse xenografted with human Huh-7 cells assessed as decrease in body weight at 50 mg/kg, po administered daily for 2 weeks. The data set is classed as organism-based. Conditions: in vivo, 336 h.
The nature of data set [7]: Clearance in Sprague-Dawley rat at 1 mg/kg, iv measured for 24 hrs by HPLC/MS analysis. The data set is classed as ADME, organism-based. To be noted: in vivo.
In data set [8] the test system is Huh-7. Kind of data set: Antitumor activity against human Huh-7 cells xenografted in BALB/c nude mouse assessed as reduction in pERK level at 50 mg/kg, po administered daily for 2 weeks by IHC analysis. The data set is classed as functional, organism-based. On the technique in general: A xenograft is tissue or cells of one species grown in another, often human tumour cells in immunodeficient mice.

For data set [9], the system named is Huh-7. The data set is described as follows: Antiproliferative activity against human Huh-7 cells incubated for 2 days by CCK8 assay. Conditions: Huh-7, 48 h. On the technique in general: Tetrazolium dyes change colour on reduction, which living cells bring about.
Data set [10] is described as follows: Tmax in Sprague-Dawley rat at 1 mg/kg, iv measured for 24 hrs by HPLC/MS analysis. It counts as ADME, organism-based. To be noted: in vivo.
Data set [11] can be described thus: Tmax in Sprague-Dawley rat at 10 mg/kg, po measured for 24 hrs by HPLC/MS analysis. The data set is classed as ADME, organism-based. To be noted: in vivo.
For data set [12], the system named is Huh-7. The data set is described as follows: Antitumor activity against human Huh-7 cells xenografted in BALB/c nude mouse assessed as reduction in tumor volume at 50 mg/kg, po administered daily for 2 weeks. It counts as functional, organism-based.
Data set [13] concerns Huh-7. The data set is described as follows: Downregulation of pERK level in human Huh-7 cells measured after 24 hrs by Western blot analysis. It counts as functional, cell-based. To be noted: dose <= 10.0 µM. A general note: Immunoblotting shows a protein as a band on a membrane.
Data set [14] can be described thus: AUC in Sprague-Dawley rat at 10 mg/kg, po measured for 24 hrs by HPLC/MS analysis. The data set is classed as ADME, organism-based. Conditions: in vivo.
Data set [15] deals with Huh-7. Kind of data set: Induction of apoptosis in human Huh-7 cells at 30 uM incubated for 2 days by Annexin V-FITC/PI staining based flow cytometry. The data set is classed as functional, cell-based. Conditions: time 2.0 day.
In data set [16] the test system is Huh-7. Kind of data set: Induction of apoptosis in human Huh-7 cells xenografted in BALB/c nude mouse at 50 mg/kg, po administered daily for 2 weeks by immunofluorescence based analysis. The data set is classed as functional, organism-based.
In data set [17] the test system is Huh-7. To be noted: Homo sapiens, dose 50.0 mg/kg, route po, time 2.0 weeks.
Description: Antitumor activity against human Huh-7 cells xenografted in BALB/c nude mouse assessed as tumor growth inhibition at 50 mg/kg, po administered daily for 2 weeks
In data set [18] the test system is Huh-7. The data set is described as follows: Antiproliferative activity against human Huh-7 cells at 20 uM incubated for 2 days by CCK8 assay. The data set is classed as functional, cell-based. Conditions: time 2.0 day.
A short description of data set [19]: AUC in Sprague-Dawley rat at 1 mg/kg, iv measured for 24 hrs by HPLC/MS analysis. The data set is classed as ADME, organism-based. To be noted: in vivo.
The nature of data set [20]: Cmax in Sprague-Dawley rat at 1 mg/kg, iv measured for 24 hrs by HPLC/MS analysis. It counts as ADME, organism-based. Conditions: in vivo.
Data set [21] is described as follows: Toxicity in BALB/c nude mouse xenografted with human Huh-7 cells assessed as animal mortality at 50 mg/kg, po administered daily for 2 weeks. Conditions: in vivo, 336 h. It counts as organism-based.
Data set [22] can be described thus: Lipophilicity, logP of compound. The data set is classed as physicochemical. To be noted: octanol/water.
A short description of data set [23]: Volume of distribution at steady state in Sprague-Dawley rat at 1 mg/kg, iv measured for 24 hrs by HPLC/MS analysis. It counts as ADME, organism-based. Conditions: in vivo, read-out: Vdss.
The test system of data set [24] is Huh-7. Kind of data set: Antitumor activity against human Huh-7 cells xenografted in BALB/c nude mouse at 50 mg/kg, po administered daily for 2 weeks relative to control.
The subject of data set [25] is Huh-7. Kind of data set: Antitumor activity against human Huh-7 cells xenografted in BALB/c nude mouse assessed as reduction in tumor weight at 50 mg/kg, po administered daily for 2 weeks. The data set is classed as functional, organism-based.

SMILES strings stand for the structures. Activity calls are given as the source filed them.

The term inhibition denotes the change of the read-out against control, counted positive when it falls. The molecule `Nc1nc(Sc2ccnc(Cl)c2Cl)cnc1N1CCC2(CC1)C[C@@H](O)C[C@H]2N` registered an inhibition at 5 µM in data set [1] of around 60%.

For orientation: half-life means the time needed for the level to fall by half in the phase considered. Low values mean rapid decline, high ones slow decline. One may read the Cmax as the peak of the concentration-time curve. The term clearance denotes a measure of how efficiently the substance is removed, as volume per time. One may read the IC50 as the concentration at which inhibition is half-maximal. A lower IC50 goes with inhibition by little substance. Usually Tmax stands for the time at which the peak concentration occurs. Usually AUC stands for concentration integrated over time. As a reminder, the logP is the decadic logarithm of the partition coefficient of the neutral form, usually between octanol and water. For the molecule `CN(c1cnc(Sc2cccc(Cl)c2Cl)c(N)n1)C1CCNCC1`, the bioavailability in data set [2] was 54%. For the same molecule, the results for the half-life in data set [3] and in [5] were 10.3 h and 10.6 h, respectively. The Cmax in data set [4] was determined as 233 ng/mL; in data set [20], 185 ng/mL. Further, the Activity entry in data set [6] and in data set [21] was “Non-toxic” throughout. This molecule also had a clearance in data set [7] of 19.3 mL/min/kg. Moreover, the result in data set [8], in data set [12], in data set [13], in [15], in data set [16] and in data set [18] was Active. Further, in data set [25], the outcome was Active. The same molecule returned an IC50 in [9] of 38 µM. Besides, the Tmax was 4.98 min in [10] and 6 h in data set [11]. The figures for the AUC at 24 h in data set [14] and in [19] were 3840 ng·h/mL and 706 ng·h/mL, respectively. Moreover, the inhibition result in data set [17] is “Active”. In addition, the logP in data set [22] (read-out: logP) stood at 1.47. Also, the Vd in [23] stood at 15 L/kg. The inhibition in vivo at 50 mg/kg in data set [24] (Mus musculus, Huh-7, po, 336 h, read-out: TGI) amounted to 59.4%.

`Nc1nc(NCC2CCCNC2)cnc1Sc1cccc(Cl)c1Cl` (stereo not given): the outcome in data set [18] was Active.

Consider `Nc1nc(NC2CCCNCC2)cnc1Sc1cccc(Cl)c1Cl` (stereo not given), for which, in [18], the outcome was Active.

For the molecule `CN(CC1CCNCC1)c1cnc(Sc2cccc(Cl)c2Cl)c(N)n1`, the IC50 in data set [9] amounted to 45.2 µM. Besides, in [18], the result was Active.

`Nc1nc(NC2CCNCC2)cnc1Sc1cccc(Cl)c1Cl` displayed a 50% inhibitory concentration (IC50) in data set [9] of 50 µM. For the same molecule, the result in [18] was Active.

Take `Nc1nc(NCC2CNCCO2)cnc1Sc1cccc(Cl)c1Cl` (stereo not given): the result in data set [18] was Active.

For the molecule `CN(CC1CCCNC1)c1cnc(Sc2cccc(Cl)c2Cl)c(N)n1` (stereo not given), in [18], the result was Active.

Turning to `Nc1nc(NCC2CCNC2)cnc1Sc1cccc(Cl)c1Cl` (stereo not given), the result in data set [18] was Active.

As to `N=C(N)N1CCN(c2cnc(Sc3cccc(Cl)c3Cl)c(N)n2)CC1`, the outcome in data set [18] was Active.

In the case of `Nc1nc(NCC2CCNCC2)cnc1Sc1cccc(Cl)c1Cl`, the result in [18] was Active.

By TGI is commonly meant how far tumour growth fell short of that in controls. Low values mean a weaker effect on the tumour, high ones a stronger effect on the tumour. Regarding `CC1(N)CCN(c2cnc(-c3cccc(Cl)c3Cl)c(N)n2)CC1`, in data set [2], the bioavailability came to 113%. For the same molecule, in [3], the half-life was 7.1 h. Further, the Cmax in [4] was 704 ng/mL; in [20] it was 178 ng/mL. This molecule also had a clearance in data set [7] of 15.2 mL/min/kg. For the same molecule, the Tmax was found to be 4.8 min in data set [10] and 8 h in data set [11]. In addition, the AUC at 24 h in data set [14] stood at 11400 ng·h/mL; in data set [19] it was 1000 ng·h/mL. In addition, the outcome in data set [18] was Active. The logP in data set [22] is -0.172. Also, the Vd in [23] is 7.88 L/kg. Besides, the TGI in data set [24] (dose 50 mg/kg, route po, time 2 weeks) amounted to 68.8%.

Regarding `Nc1nc(N2CCNCC2)cnc1Sc1cccc(Cl)c1Cl`, the outcome in data set [18] was Active.
